Assays:
Format in all cases: cell-based, human
[1] = test system: monocytes from PBMC, M1-to-M2 macrophage repolarization; assay: M1-to-M2 macrophage repolarization assay; details: cytokine analysis (MSD), day 14 supernatant
From the text: The purpose of this study was to evaluate the effects of lobeglitazone and other thiazolidinediones on M1-to-M2 macrophage repolarization. The test articles and vehicles used in this study were lobeglitazone sulfate, pioglitazone HCl, and rosiglitazone.
M1-to-M2 macrophage repolarization assay timeline were as follows in Table 13.
Drug concentrations tested in the M1 differentiation assay are as in Table 14.
• (1) Isolate monocytes from PBMC using StemCell® monocyte isolation kit. • (2) Count cell and adjust the cell density to 0.5×10^6 cells/ml with fresh complete differentiation medium (add 10 μl M-CSF stock (100 μg/ml) 10 ml cell mixture to a final concentration of 50 ng/ml). • (3) Seed isolated monocyte 100 μL per well on 96-well plate. • (4) On day 4, add additional 100 μl medium containing M-CSF • (5) On day 6, add stimulator at 5× final concentration (200 μL medium in each well) to a final concentration of 50 ng/ml. • (6) On day 8, remove medium and replenish with 200 μL cytokine free medium, then add test compound (final concentration in μM) and incubate for 4 days. • (7) On day 12, add IL-4 and incubate for 2 days (add 50 μL of 100 ng/ml IL-4 to each well containing 200 μL medium to reach 20 ng/ml). • (8) On day 14, spin down the plates at 300×g for 5 min and collect the supernatant for cytokine quantification. • (9) M1 and M2 associated macrophage cytokines of interest are as follows in Table 15.
The cells are then collected for flow analysis of viability/CD11c/CD163/CD206.
Cell surface marker CD163, CD11c, and CD206 were applied to characterize M2 repolarization via flow cytometry. Controls included No stain and staining with all surface marker antibodies to confirm the optimization of gating strategy.

[2] = test system: monocytes from PBMC differentiated into M2 macrophage; assay: M2 macrophage differentiation assay; details: CD163, CD11c, CD206; donor 1 and 2
From the text: The purpose of this study was to evaluate the effects of lobeglitazone and other thiazolidinediones on M2 macrophage differentiation. The test articles and vehicles used in this study were lobeglitazone sulfate, pioglitazone HCl, and rosiglitazone.
M2 macrophage differentiation assay timeline was as follows in Table 10.
• (1) Isolate monocytes from PBMC using StemCell® monocyte isolation kit • (2) Count cell and adjust the cell density to 0.5×10^6 cells/ml with fresh complete differentiation medium. Add 5 μL M-CSF stock ([…]) to each 5 ml cell mixture. • (3) Seed isolated monocyte 100 μL per well on 96-well plate. • (4) Add test articles as the plate map using D300e (final concentration in μM). • (5) Differentiate the monocyte to macrophage in the presence of M-CSF to […] for 4 days. • (6) On day 4, add additional medium containing M-CSF. • (7) Add test compounds using D300e (final volume=[…]). • (8) On day 6, add IL-4 at 5× final concentration (IL-4 stock 0.1 mg/ml: dilute 10 μl stock into 10 ml medium for 100 ng/ml. Add 50 μl 100 ng/ml IL-4 to each well containing 200 μL medium to reach 20 ng/ml). • (9) On day 8, spin down the plates at 300×g for 5 min and collect the supernatant for cytokine quantification using MSD. • (10) M2 associated macrophage cytokines of interest are listed below in Table 12.
• (11) Collect cells for flow analysis of viability/CD11c/CD163/CD206.
Flow cytometry and surface marker CD163, CD11c, and CD206 were applied to characterize M2 repolarization. No stain and all stain with surface marker antibody to confirm the optimization of gating strategy.

[3] = test system: monocytes differentiated to M1 macrophage; assay: M1 macrophage differentiation assay; details: TNF-α, IL-1b, IL-6, IL-12, IL-23 in supernatant on day 7 (MSD); concentrations of Table 9
From the text: The purpose of this study was to evaluate the effects of lobeglitazone and other thiazolidinediones on M1 macrophage differentiation. The test articles and vehicles used in this study were lobeglitazone sulfate, pioglitazone HCl, and rosiglitazone.
M1 macrophage differentiation assay timeline was as follows in Table 8.
Drug concentrations tested in the M1 differentiation assay are as in Table 9.
• (1) Revive frozen monocytes. • (2) Count cells and adjust the cell density to 0.5×10^6 cells/ml with fresh complete differentiation medium (RPMI1640+10% FBS+1% PS plus GM-CSF or M-CSF at 50 ng/ml). • (3) Seed isolated monocyte 100 μL per well on 96-well plate. • (4) Add test articles as the plate map using D300e (final concentration in μM). • (5) Differentiate the monocyte to macrophage in the presence of GM-CSF to M1, or M-CSF to M2 for 5 days. • (6) On day 5, add cytokines at 2× final concentration. • (6a) Prepare medium containing GM-CSF for M1 and M-CSF for M2. • (6b) Add corresponding activator to reach 2× final working concentration: (i) IFNγ stock 0.2 mg/ml: add 2.5 μL stock into 5 ml complete differentiation medium for 100 ng/ml; (ii) LPS stock 1.0 mg/ml: dilute to 20 μg/ml by mixing 2 μL stock into 100 μl medium; then add 10 μl 20 μg/ml LPS to 5 ml complete differentiation medium for 40 ng/ml; (iii) IL-4 stock 0.1 mg/ml: dilute 2 μL stock into 5 ml complete differentiation medium for 40 ng/ml. • (6c) Add 100 μL cytokine containing differentiating medium to each well, and total volume of each well is 200 μL. • (6d) Add test compound again using D300e. Make sure to set the final volume as 200 μL. • (7) Incubate cytokine and test compound for 48 hours. • (8) On day 7, spin down the plates at 300×g for 5 min and collect the supernatant for cytokine quantification using MSD. • (9) M1 associated macrophage cytokines TNF-α, IL-1b, IL-6, IL-12, and IL-23 were quantified.

CN(CCOc1ccc(CC2SC(=O)NC2=O)cc1)c1ccccn1 (racemic) [rosiglitazone, (RS)-5-[4-(2-[methyl(pyridin-2-yl)amino]ethoxy)benzyl]thiazolidine-2,4-dione]
concentration showing remarkable promotion of MDC expression [1]: 6.4 µM | concentration at which M2 repolarization was promoted (M2 macrophage surface markers, flow cytometry) [2]: ~0.4 µM | M1 macrophage cytokines expression [3]: promoted the M1 macrophage cytokines in a dose-dependent manner

CCc1ccc(CCOc2ccc(CC3SC(=O)NC3=O)cc2)nc1.Cl (racemic) [pioglitazone, (±)-5-[p-[2-(5-Ethyl-2-pyridyl)ethoxy]benzyl]-2,4-thiazolidinedione monohydrochloride]
concentration showing remarkable promotion of MDC expression [1]: 5 µM | concentration at which M2 repolarization was promoted (M2 macrophage surface markers, flow cytometry) [2]: ~10 µM | M1 macrophage cytokines expression [3]: promoted the M1 macrophage cytokines in a dose-dependent manner

Reference: US20250262209A1, “TREATMENT OF GASTROINTESTINAL DISEASES” (Aclipse Two, Inc., priority 2022, published 2025)
